In patent US20240190842A1, “SUBSTITUTED QUINOLINONE-8-CARBONITRILE DERIVATIVES HAVING ANDROGEN DEGRADATION ACTIVITY AND USES THEREOF” (Accutar Biotechnology Inc., priority 2022, published 2024):

What was measured:
LNCAP cells = assay: Inhibition of R1881 stimulated cell growth in LNCAP cells (CellTiter-Glo); type: cell-based; conditions: Homo sapiens, 144 h, 10% CSS, 6 days
Method: (§1) LNCAP and VCAP cells were seeded in 96-well plates at 5000 (LNCAP) and 6000 (VCAP) cells/well in phenol red-free RPM11640 supplemented with 10% charcoal stripped serum (CSS), and then incubated at 37° C. overnight. The following day, the test compound was administered to the cells by using 1000× compound stock solution prepared in DMSO at various concentrations. 1000× compound stock solution was first diluted 1:100 in phenol red-free RPM11640 supplemented with 10% CSS and 1 nM R1881 to prepare the 10× treatment solutions containing serial dilutions of AC176 together in the presence of 1 nM, and then 10 uL compound medium was added to each well in the cell plates. After administration of the compound, the cells were then incubated at 37° C. for 6 days. Upon completion, the plates were equilibrated at room temperature for approximately 10 minutes. 100 ul of CellTiter-Glo® 3D Reagent (Promega) was added to each well. The plates were then incubated at room temperature for 30 minutes and luminescence was recorded by EnSpire plate reader (PerkinElmer). The results are shown in Table 5, which summarizes the growth inhibition (G150) in LNCAP and VCAP cells with exemplary compounds of the present disclosure.

VCAP cells = assay: Inhibition of R1881 stimulated cell growth in VCAP cells (CellTiter-Glo); type: cell-based; conditions: Homo sapiens, 144 h, 10% CSS, 6 days
Method: as §1

| SMILES | GI50 (LNCAP cells) [µM] | GI50 (VCAP cells) [µM] |
| --- | --- | --- |
| CC1(C)[C@H](NC(=O)c2ccc(N3CCC(CN4CCN(c5ccc6c(c5)CN([C@H]5CCC(=O)NC5=O)C6=O)CC4)CC3)c(F)c2)C(C)(C)[C@H]1Oc1ccc(C#N)c2[nH]c(=O)ccc12 [Compound 16, N-((1,3-trans)-3-((8-cyano-2-oxo-1,2-dihydroquinolin-5-yl)oxy)-2,2,4,4-tetramethylcyclobutyl)-4-(4-((4-(2-((S)-2,6-dioxopiperidin-3-yl)-1-oxoisoindolin-5-yl)piperazin-1-yl)methyl)piperidin-1-yl)-3-fluorobenzamide] | ≤ 0.05 | ≤ 0.05 |
| CC1(C)C(NC(=O)c2ccc(N3CCC(CN4CCN(c5ccc6c(c5)CN([C@H]5CCC(=O)NC5=O)C6=O)CC4)CC3)cc2)C(C)(C)C1Oc1ccc(C#N)c2[nH]c(=O)ccc12 (stereo partly drawn) [Compound 18, N-((1,3-trans)-3-((8-cyano-2-oxo-1,2-dihydroquinolin-5-yl)oxy)-2,2,4,4-tetramethylcyclobutyl)-4-(4-((4-(2-((S)-2,6-dioxopiperidin-3-yl)-1-oxoisoindolin-5-yl)piperazin-1-yl)methyl)piperidin-1-yl)benzamide] | ≤ 0.05 | ≤ 0.05 |
| CC1(C)C(NC(=O)c2ccc(N3CCC(CN4CCN(c5ccc6c(c5)C(=O)N(C5CCC(=O)NC5=O)C6=O)CC4)CC3)cc2)C(C)(C)C1Oc1ccc(C#N)c2[nH]c(=O)ccc12 (stereo not drawn) [Compound 20, N-((1,3-trans)-3-((8-cyano-2-oxo-1,2-dihydroquinolin-5-yl)oxy)-2,2,4,4-tetramethylcyclobutyl)-4-(4-((4-(2-(2,6-dioxopiperidin-3-yl)-1,3-dioxoisoindolin-5-yl)piperazin-1-yl)methyl)piperidin-1-yl)benzamide] | > 0.5 | 0.05 to 0.5 |
| CC1(C)C(NC(=O)c2ccc(N3CCC(CN4CCN(c5ccc6c(c5)CN([C@H]5CCC(=O)NC5=O)C6=O)CC4)CC3)cc2)C(C)(C)C1Oc1ccc(C#N)c2[nH]ccc(=O)c12 (stereo partly drawn) [Compound 30, N-((1,3-trans)-3-((8-cyano-4-oxo-1,4-dihydroquinolin-5-yl)oxy)-2,2,4,4-tetramethylcyclobutyl)-4-(4-((4-(2-((S)-2,6-dioxopiperidin-3-yl)-1-oxoisoindolin-5-yl)piperazin-1-yl)methyl)piperidin-1-yl)benzamide] | ≤ 0.05 | ≤ 0.05 |
| Cn1c(=O)ccc2c(OC3C(C)(C)C(NC(=O)c4ccc(N5CCC(CN6CCN(c7ccc8c(c7)CN([C@H]7CCC(=O)NC7=O)C8=O)CC6)CC5)cc4)C3(C)C)ccc(C#N)c21 (stereo partly shown) [Compound 34] | ≤ 0.05 | ≤ 0.05 |
| Cn1ccc(=O)c2c(O[C@H]3C(C)(C)[C@H](NC(=O)c4ccc(N5CCC(CN6CCN(c7ccc8c(c7)CN([C@H]7CCC(=O)NC7=O)C8=O)CC6)CC5)cc4)C3(C)C)ccc(C#N)c21 [Compound 39, N-((1,3-trans)-3-((8-cyano-1-methyl-4-oxo-1,4-dihydroquinolin-5-yl)oxy)-2,2,4,4-tetramethylcyclobutyl)-4-(4-((4-(2-((S)-2,6-dioxopiperidin-3-yl)-1-oxoisoindolin-5-yl)piperazin-1-yl)methyl)piperidin-1-yl)benzamide] | ≤ 0.05 | ≤ 0.05 |
| CC1(C)C(NC(=O)c2ccc(N3CCC(CN4CCN(c5ccc(C(=O)N[C@H]6CCC(=O)NC6=O)nc5)CC4)CC3)cc2)C(C)(C)C1Oc1ccc(C#N)c2[nH]c(=O)ccc12 (stereo partly drawn) [Compound 43, 5-(4-((1-(4-(((1,3-trans)-3-((8-cyano-2-oxo-1,2-dihydroquinolin-5-yl)oxy)-2,2,4,4-tetramethylcyclobutyl)carbamoyl)phenyl)piperidin-4-yl)methyl)piperazin-1-yl)-N-((S)-2,6-dioxopiperidin-3-yl)picolinamide] | > 0.5 | 0.05 to 0.5 |
| CC1(C)C(NC(=O)c2ccc(N3CCC(CN4CCN(c5ccc6c(=O)n(C7CCC(=O)NC7=O)ncc6c5)CC4)CC3)cc2)C(C)(C)C1Oc1ccc(C#N)c2[nH]c(=O)ccc12 (stereo not drawn) [Compound 49, N-((1,3-trans)-3-((8-cyano-2-oxo-1,2-dihydroquinolin-5-yl)oxy)-2,2,4,4-tetramethylcyclobutyl)-4-(4-((4-(2-(2,6-dioxopiperidin-3-yl)-1-oxo-1,2-dihydrophthalazin-6-yl)piperazin-1-yl)methyl)piperidin-1-yl)benzamide] | > 0.5 | 0.05 to 0.5 |
